This assay addresses Benzodiazepine Receptors. In words: Benzodiazepine receptor binding affinity: displacement of 3H-diazepam from rat synaptosomal membranes. As to conditions: for Ki: 3H-diazepam; for Ki / IC50: 4° C., 15 min, triplicate; for IC50: inhibition of specific 3H-diazepam binding; for Relative Potency: relative to Diazepam = 100, 3H-diazepam. The procedure: 2'-Iododiazepam, Diazepam and Fludiazepam were screened as for benzodiazepine binding affinity according to the method reported by Nakatsuka (Life Sciences 36 (2) 113-119, 1985). An aliquot of synaptosomal membrane preparations was incubated at 4° C. for 15 min. with each of the unlabeled competing drugs (2'-Iodoiazepam, Diazepam and Fludiazepam) in different concentration and 3H-diazepam. The incubation was terminated by adding ice-cold Tris-HCl buffer followed by a rapid filtration through a Whatman GF/B filter. The bound 3H-diazepam retained on the filter was extracted with ACS-II (Amersham) and counted. All incubations were conducted in triplicate. Nonspecific binding was determined in tubes containing diazepam. Specific binding was calculated by subtracting the nonspecific binding from the total binding. IC50 values, the concentrations of the tested compounds that cause 50% inhibition of the specific 3H-diazepam were determined from the displacement curves obtained.
For orientation: Loss of bound radioactivity is the signal in a displacement assay; it reports binding, not function.

The structures appear in SMILES notation.

In the case of `CN1C(=O)CN=C(c2ccccc2I)c2cc(Cl)ccc21` [2'-Iododiazepam, 7-chloro-1-methyl-5-(2-iodophenyl)-3H-1,4-benzodiazepin-2-one], the Ki was 0.21 nM, the IC50 was found to be 0.25 nM and the “Relative Potency” value turned out to be 3600.
The like results for `CN1C(=O)CN=C(c2ccccc2)c2cc(Cl)ccc21` [Diazepam] were, in that order, 7.7 nM, 9 nM and 100.
For `CN1C(=O)CN=C(c2ccccc2F)c2cc(Cl)ccc21` [Fludiazepam] the same measures were 1 nM, 1.2 nM and 770.

As a reminder, the Ki is a dissociation constant, usually derived from enzyme kinetics or from competition with a known ligand. The IC50 is the concentration that inhibits the measured activity by half. Low values mean inhibition by little substance, high ones a need for much substance.

Values taken from patent publication US5216147A, “Radioactive benzodiazepine derivatives” (Sumitomo Chemical Company, Limited, priority 1987, dated 1993).
